Source: ChEMBL document CHEMBL1201862, “PubChem BioAssay data set” (2004)
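Cells were grown in 96-well plates and exposed to each compound for 48 hours at five concentrations; endpoints were interpolated linearly between bracketing concentrations, or set to the highest concentration if not reached. Here, GI50 denotes the concentration required for 50% inhibition of growth.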 Calls of active or inactive are those of the source. Cut-off read from the data, not from the text of the source: active = GI50 up to about 1.1 µM and inactive = higher.

Legend:
Assay in all cases: inhibition of tumour cell growth, NCI panel, 48 h
[1] = test system: BT-549
[2] = test system: TK-10
[3] = test system: M14
[4] = test system: SK-MEL-5
[5] = test system: SF-539
[6] = test system: MDA-MB-435
[7] = test system: SNB-19
[8] = test system: SW-620
[9] = test system: NCI/ADR-RES
[10] = test system: MCF7
[11] = test system: DU-145
[12] = test system: MDA-MB-231
[13] = test system: HOP-92
[14] = test system: 786-0
[15] = test system: HCT-15
[16] = test system: OVCAR-4
[17] = test system: K562
[18] = test system: OVCAR-3
[19] = test system: SF-268
[20] = test system: HOP-62
[21] = test system: SF-295
[22] = test system: COLO 205
[23] = test system: EKVX
[24] = test system: NCI-H226
[25] = test system: LOX IMVI
[26] = test system: A498
[27] = test system: SK-OV-3
[28] = test system: KM12
[29] = test system: HL-60
[30] = test system: ACHN
[31] = test system: OVCAR-5
[32] = test system: OVCAR-8
[33] = test system: RXF 393
[34] = test system: UACC-257
[35] = test system: HT-29
[36] = test system: Hs-578T
[37] = test system: UACC-62
[38] = test system: CAKI-1
[39] = test system: SN12C
[40] = test system: MOLT-4
[41] = test system: NCI-H460
[42] = test system: SNB-75
[43] = test system: RPMI-8226
[44] = test system: NCI-H522
[45] = test system: T47D
[46] = test system: IGROV-1
[47] = test system: UO-31
[48] = test system: U-251
[49] = test system: PC-3
[50] = test system: CCRF-CEM
[51] = test system: NCI-H23
[52] = test system: HCT-116
[53] = test system: MDA-N
[54] = test system: A549
[55] = test system: HCC 2998
[56] = test system: Malme-3M
[57] = test system: SK-MEL-2
[58] = test system: SK-MEL-28

SMILES: O=c1c2ccccc2nc(-c2ccc(Cl)cc2)n1O
- GI50 [1]: 27.3 µM (inactive)
- GI50 [2]: 21.1 µM (inactive)
- GI50 [3]: 26.4 µM (inactive)
- GI50 [4]: 29.9 µM (inactive)
- GI50 [5]: 23.8 µM (inactive)
- GI50 [6]: 26.5 µM (inactive)
- GI50 [7]: 25.2 µM (inactive)
- GI50 [8]: 33.7 µM (inactive)
- GI50 [9]: 19.6 µM (inactive)
- GI50 [10]: 20 µM (inactive)
- GI50 [11]: 89.9 µM (inactive)
- GI50 [12]: > 100 µM (inactive)
- GI50 [13]: 15.6 µM (inactive)
- GI50 [14]: 22.2 µM (inactive)
- GI50 [15]: 9.55 µM
- GI50 [16]: 37 µM (inactive)
- GI50 [17]: 22.9 µM (inactive)
- GI50 [18]: 40.2 µM (inactive)
- GI50 [19]: 18.8 µM (inactive)
- GI50 [20]: 9.12 µM (inactive)
- GI50 [21]: 27.5 µM (inactive)
- GI50 [22]: 34.6 µM (inactive)
- GI50 [23]: 21.7 µM (inactive)
- GI50 [24]: 15.5 µM (inactive)
- GI50 [25]: 1.11 µM (active)
- GI50 [26]: 53.7 µM (inactive)
- GI50 [27]: 28.2 µM (inactive)
- GI50 [28]: 9.53 µM (inactive)
- GI50 [29]: 18.3 µM (inactive)
- GI50 [30]: 22.5 µM (inactive)
- GI50 [31]: 47.4 µM (inactive)
- GI50 [32]: 16.5 µM (inactive)
- GI50 [33]: 26.7 µM (inactive)
- GI50 [34]: 24.9 µM (inactive)
- GI50 [35]: 45.7 µM (inactive)
- GI50 [36]: 76 µM (inactive)
- GI50 [37]: 35.9 µM (inactive)
- GI50 [38]: 15.2 µM (inactive)
- GI50 [39]: 35.7 µM (inactive)
- GI50 [40]: 17.9 µM (inactive)
- GI50 [41]: 11.1 µM (inactive)
- GI50 [42]: 38.2 µM (inactive)
- GI50 [43]: 26.9 µM (inactive)
- GI50 [44]: 15.3 µM (inactive)
- GI50 [45]: > 100 µM (inactive)
- GI50 [46]: 2.19 µM (inactive)
- GI50 [47]: 2200 nM (inactive)
- GI50 [48]: 20.8 µM (inactive)
- GI50 [49]: 33.9 µM (inactive)
- GI50 [50]: 14.1 µM (inactive)
- GI50 [51]: 48.4 µM (inactive)
- GI50 [52]: 29.7 µM (inactive)
- GI50 [53]: 35.6 µM (inactive)
- GI50 [54]: 29.4 µM (inactive)

SMILES: N=C(N)NS(=O)(=O)c1ccc(Nc2c3ccccc3nc3c(C(=O)NNCCO)cccc23)cc1
- GI50 [1]: 0.121 µM (active)
- GI50 [2]: > 1 µM (active)
- GI50 [3]: 0.21 µM (active)
- GI50 [4]: 0.123 µM (active)
- GI50 [5]: 0.303 µM (active)
- GI50 [6]: 0.0585 µM (active)
- GI50 [55]: 0.211 µM (active)
- GI50 [7]: 0.276 µM (active)
- GI50 [8]: 0.164 µM (active)
- GI50 [9]: > 1 µM (active)
- GI50 [10]: 0.109 µM (active)
- GI50 [11]: 0.578 µM (active)
- GI50 [12]: 0.261 µM (active)
- GI50 [13]: 0.284 µM (active)
- GI50 [14]: 0.436 µM (active)
- GI50 [15]: 0.33 µM
- GI50 [16]: 0.295 µM (active)
- GI50 [17]: 0.055 µM (active)
- GI50 [18]: 0.134 µM (active)
- GI50 [19]: 0.141 µM (active)
- GI50 [20]: 0.193 µM (active)
- GI50 [21]: 0.407 µM (active)
- GI50 [22]: 0.183 µM (active)
- GI50 [23]: 0.361 µM (active)
- GI50 [24]: 0.19 µM (active)
- GI50 [25]: 0.165 µM (active)
- GI50 [26]: > 1 µM (active)
- GI50 [27]: > 1 µM (active)
- GI50 [28]: 0.141 µM (active)
- GI50 [29]: 0.227 µM (active)
- GI50 [30]: 0.565 µM (active)
- GI50 [31]: 0.499 µM (active)
- GI50 [32]: 0.303 µM (active)
- GI50 [33]: 0.186 µM (active)
- GI50 [34]: 0.22 µM (active)
- GI50 [35]: 0.352 µM (active)
- GI50 [36]: 0.249 µM (active)
- GI50 [37]: 0.27 µM (active)
- GI50 [38]: 0.198 µM (active)
- GI50 [39]: 0.282 µM (active)
- GI50 [40]: 0.184 µM (active)
- GI50 [41]: 0.158 µM (active)
- GI50 [43]: 0.137 µM (active)
- GI50 [44]: 0.127 µM (active)
- GI50 [45]: 0.12 µM (active)
- GI50 [46]: 0.153 µM (active)
- GI50 [56]: 0.14 µM (active)
- GI50 [47]: 416 nM (active)
- GI50 [48]: 0.139 µM (active)
- GI50 [49]: 0.303 µM (active)
- GI50 [50]: 0.0541 µM (active)
- GI50 [51]: 0.133 µM (active)
- GI50 [57]: 0.156 µM (active)
- GI50 [58]: 0.252 µM (active)
- GI50 [52]: 0.156 µM (active)
- GI50 [53]: 0.136 µM (active)
- GI50 [54]: 0.473 µM (active)

SMILES: Cc1cc(S(=O)(=O)Nc2nc(N)nc(N3N=CCC3C)n2)c(SCC(=O)O)cc1Cl (stereo not drawn)
- GI50 [1]: > 10 µM (inactive)
- GI50 [2]: > 10 µM (inactive)
- GI50 [3]: > 10 µM (inactive)
- GI50 [4]: > 10 µM (inactive)
- GI50 [5]: > 10 µM (inactive)
- GI50 [6]: > 10 µM (inactive)
- GI50 [55]: > 10 µM (inactive)
- GI50 [7]: > 10 µM (inactive)
- GI50 [8]: > 10 µM (inactive)
- GI50 [9]: > 10 µM (inactive)
- GI50 [10]: > 10 µM (inactive)
- GI50 [11]: > 10 µM (inactive)
- GI50 [12]: > 10 µM (inactive)
- GI50 [14]: > 10 µM (inactive)
- GI50 [15]: > 10 µM
- GI50 [16]: > 10 µM (inactive)
- GI50 [17]: > 10 µM (inactive)
- GI50 [18]: > 10 µM (inactive)
- GI50 [19]: > 10 µM (inactive)
- GI50 [20]: > 10 µM (inactive)
- GI50 [21]: > 10 µM (inactive)
- GI50 [22]: > 10 µM (inactive)
- GI50 [23]: > 10 µM (inactive)
- GI50 [24]: > 10 µM (inactive)
- GI50 [25]: > 10 µM (inactive)
- GI50 [26]: > 10 µM (inactive)
- GI50 [27]: > 10 µM (inactive)
- GI50 [28]: > 10 µM (inactive)
- GI50 [29]: > 10 µM (inactive)
- GI50 [30]: > 10 µM (inactive)
- GI50 [31]: > 10 µM (inactive)
- GI50 [32]: > 10 µM (inactive)
- GI50 [33]: > 10 µM (inactive)
- GI50 [34]: > 10 µM (inactive)
- GI50 [35]: > 10 µM (inactive)
- GI50 [36]: > 10 µM (inactive)
- GI50 [37]: > 10 µM (inactive)
- GI50 [38]: > 10 µM (inactive)
- GI50 [39]: > 10 µM (inactive)
- GI50 [40]: > 10 µM (inactive)
- GI50 [41]: > 10 µM (inactive)
- GI50 [42]: > 10 µM (inactive)
- GI50 [43]: > 10 µM (inactive)
- GI50 [44]: > 10 µM (inactive)
- GI50 [45]: > 10 µM (inactive)
- GI50 [46]: > 10 µM (inactive)
- GI50 [56]: > 10 µM (inactive)
- GI50 [47]: 1 nM (active)
- GI50 [48]: > 10 µM (inactive)
- GI50 [49]: > 10 µM (inactive)
- GI50 [50]: > 10 µM (inactive)
- GI50 [51]: > 10 µM (inactive)
- GI50 [57]: > 10 µM (inactive)
- GI50 [58]: > 10 µM (inactive)
- GI50 [52]: > 10 µM (inactive)
- GI50 [53]: > 10 µM (inactive)
- GI50 [54]: > 10 µM (inactive)
